Data as given in ChEMBL document CHEMBL6103543, “Exploring the rhodanine universe: Design and synthesis of fluorescent rhodanine-based derivatives as anti-fibrillar and anti-oligomer agents against α-synuclein and 2N4R tau” (Bioorg Med Chem, 2024).
Activity calls are given as the source filed them. The calls are words filed in the database; no cut-off is given here.

What was measured:
[1] = target: T1, Alpha-synuclein (Homo sapiens, UniProt P37840); test: Inhibition of recombinant alpha-synuclein (unknown origin) fibril formation assessed as thioflavin T fluorescence intensity at 100 uM measured every 20 mins by Thioflavin T fluorescence assay (reference value: 100 %)
[2] = target: T1, Alpha-synuclein; test: Inhibition of alpha-synuclein (unknown origin) oligomer formation assessed as reduction in cross linking at 100 uM preincubated with compound followed by Ru(BPY3) addition and measured after 1 sec light irradiation by coomassie blue staining based PICUP assay
[3] = target: T1, Alpha-synuclein; test: Inhibition of recombinant alpha-synuclein (unknown origin) fibril formation assessed as decrease in aggregation at 100 uM incubated for 3 days by transmission electron microscopic analysis; conditions: time 3.0 day
[4] = target: T1, Alpha-synuclein; test: Inhibition of alpha-synuclein (unknown origin) oligomer formation assessed as reduction in cross linking preincubated with compound followed by Ru(BPY3) addition and measured after 1 sec light irradiation by coomassie blue staining based PICUP assay; conditions: dose 50-200 µM
[5] = target: Microtubule-associated protein tau (Homo sapiens) (UniProt P10636); test: Inhibition of recombinant Tau 0N4R (unknown origin) aggregation assessed as decrease in fluorescence intensity at 100 uM measured every 5 mins by Thioflavin S fluorescence assay
[6] = target: T1, Alpha-synuclein; test: Binding affinity to alpha-synuclein fibril (unknown origin) assessed as hypsochromic shift at 1 uM incubated for 40 mins by fluorescence spectrophotometric analysis
[7] = target: T1, Alpha-synuclein; test: Inhibition of alpha-synuclein (unknown origin) oligomer formation assessed as reduction in cross linking at 50 uM preincubated with compound followed by Ru(BPY3) addition and measured after 1 sec light irradiation by coomassie blue staining based PICUP assay relative to control
[8] = target: T1, Alpha-synuclein; test: Inhibition of recombinant alpha-synuclein (unknown origin) fibril formation assessed as decrease in thioflavin T fluorescence intensity measured every 20 mins by Thioflavin T fluorescence assay
[9] = target: T1, Alpha-synuclein; test: (§1) Inhibition of alpha-syn inclusion formation in human M17D cells expressing doxycyclin-inducible alpha-syn-S3K::YFP inclusion-prone fusion protein assessed as reduction in inclusions at 1.25 to 40 uM treated with compound starting from 24 hrs post plating followed by doxycyclin addition at 48 hrs and measured 96 hrs post plating by Incucyte-based analysis; assay type: cell-based; conditions: dose 1.25-40 µM, time 72.0 hrs
[10] = as §1, with “Cytotoxicity against” for “Inhibition of alpha-syn inclusion formation in”, “cell confluency” for “inclusions”; assay type: toxicity; conditions: 72 h, dose 1.25-40 µM
[11] = target: Microtubule-associated protein tau (Homo sapiens) (UniProt P10636); test: Inhibition of Tau 0N4R (unknown origin) oligomer formation assessed as reduction in cross linking at 100 uM preincubated with compound followed by Ru(BPY3) addition and measured after 15 sec light irradiation by coomassie blue staining based PICUP assay relative to control
[12] = target: Amyloid-beta precursor protein (Homo sapiens) (UniProt P05067); test: Inhibition of HFIP-induced recombinant amyloid beta (1 to 42) (unknown origin) aggregation assessed as decrease in thioflavin T fluorescence intensity at 100 uM measured every 20 mins by Thioflavin T fluorescence assay
[13] = target: Microtubule-associated protein tau (Homo sapiens) (UniProt P10636); test: Binding affinity to recombinant human 2N4R fibril extracted from Escherichia coli assessed as fluorescence quenching at 1 uM incubated for 40 mins by fluorescence spectrophotometric analysis
[14] = target: Microtubule-associated protein tau (Homo sapiens) (UniProt P10636); test: Inhibition of recombinant phosphorylated Tau 1N4R (unknown origin) aggregation assessed as decrease in fluorescence intensity at 100 uM measured every 5 mins by Thioflavin S fluorescence assay
[15] = target: Microtubule-associated protein tau (Homo sapiens) (UniProt P10636); test: Inhibition of recombinant Tau 2N4R (unknown origin) aggregation assessed as decrease in fluorescence intensity at 100 uM measured every 5 mins by Thioflavin S fluorescence assay
[16] = target: Microtubule-associated protein tau (Homo sapiens) (UniProt P10636); test: Inhibition of Tau 0N4R (unknown origin) oligomer formation assessed as reduction in cross linking at 300 uM preincubated with compound followed by Ru(BPY3) addition and measured after 15 sec light irradiation by coomassie blue staining based PICUP assay relative to control
[17] = target: T1, Alpha-synuclein; test: Inhibition of alpha-synuclein (unknown origin) oligomer formation at 100 uM incubated for 3 days by Western blot analysis; conditions: time 3.0 day
[18] = target: Microtubule-associated protein tau (Homo sapiens) (UniProt P10636); test: Inhibition of Tau 0N4R (unknown origin) oligomer formation assessed as reduction in cross linking at 50 uM preincubated with compound followed by Ru(BPY3) addition and measured after 15 sec light irradiation by coomassie blue staining based PICUP assay relative to control
[19] = target: Microtubule-associated protein tau (Homo sapiens) (UniProt P10636); test: Inhibition of Tau 0N4R (unknown origin) oligomer formation assessed as reduction in cross linking at 200 uM preincubated with compound followed by Ru(BPY3) addition and measured after 15 sec light irradiation by coomassie blue staining based PICUP assay relative to control
[20] = target: T1, Alpha-synuclein; test: Inhibition of alpha-synuclein (unknown origin) oligomer formation assessed as reduction in cross linking at 100 uM preincubated with compound followed by Ru(BPY3) addition and measured after 1 sec light irradiation by coomassie blue staining based PICUP assay relative to control
[21] = target: Amyloid-beta precursor protein (Homo sapiens) (UniProt P05067); test: Inhibition of amyloid beta aggregation derived from alzhemier's disease patient brain assessed as reduction in plaques at 50 uM incubated for 5 days by transmission electron microscopic analysis; conditions: time 5.0 day
[22] = target: T1, Alpha-synuclein; test: Binding affinity to alpha-synuclein fibril (unknown origin) assessed as decrease in fluorescence intensity at 1 uM incubated for 60 mins by fluorescence spectrophotometric analysis
[23] = target: Microtubule-associated protein tau (Homo sapiens) (UniProt P10636); test: Inhibition of Tau 2N4R monomer (unknown origin) fibril formation assessed as decrease in aggregation at 100 uM incubated for 5 days by transmission electron microscopic analysis; conditions: time 5.0 day
[24] = target: Microtubule-associated protein tau (Homo sapiens) (UniProt P10636); test: Binding affinity to recombinant human 2N4R fibril extracted from Escherichia coli assessed as decrease in fluorescence intensity at 1 uM incubated for 60 mins by fluorescence spectrophotometric analysis
[25] = target: Amyloid-beta precursor protein (Homo sapiens) (UniProt P05067); test: Inhibition of amyloid beta aggregation derived from alzhemier's disease patient brain assessed as reduction in plaque density at 50 uM incubated for 5 days by transmission electron microscopic analysis; conditions: time 5.0 day
[26] = target: Microtubule-associated protein tau (Mus musculus) (UniProt P10637); test: Inhibition of Tau aggregation in mouse N2a cells at 15 uM incubated for 5 days by ThS staining based analysis relative to control; assay type: cell-based; conditions: time 5.0 day
[27] = as §1, with “Cytotoxicity against” for “Inhibition of alpha-syn inclusion formation in”, “cell confluency” for “inclusions”, “5” for “40”; assay type: toxicity; conditions: 72 h, dose 1.25-5 µM
[28] = target: T1, Alpha-synuclein; test: as §1, with “5” for “1.25 to 40”; assay type: cell-based; conditions: time 72.0 hrs
[29] = target: T1, Alpha-synuclein; test: as §1, with “5” for “40”; assay type: cell-based; conditions: dose 1.25-5 µM, time 72.0 hrs

Chain of Microtubule-associated protein tau (Homo sapiens) (P10636 whole entry): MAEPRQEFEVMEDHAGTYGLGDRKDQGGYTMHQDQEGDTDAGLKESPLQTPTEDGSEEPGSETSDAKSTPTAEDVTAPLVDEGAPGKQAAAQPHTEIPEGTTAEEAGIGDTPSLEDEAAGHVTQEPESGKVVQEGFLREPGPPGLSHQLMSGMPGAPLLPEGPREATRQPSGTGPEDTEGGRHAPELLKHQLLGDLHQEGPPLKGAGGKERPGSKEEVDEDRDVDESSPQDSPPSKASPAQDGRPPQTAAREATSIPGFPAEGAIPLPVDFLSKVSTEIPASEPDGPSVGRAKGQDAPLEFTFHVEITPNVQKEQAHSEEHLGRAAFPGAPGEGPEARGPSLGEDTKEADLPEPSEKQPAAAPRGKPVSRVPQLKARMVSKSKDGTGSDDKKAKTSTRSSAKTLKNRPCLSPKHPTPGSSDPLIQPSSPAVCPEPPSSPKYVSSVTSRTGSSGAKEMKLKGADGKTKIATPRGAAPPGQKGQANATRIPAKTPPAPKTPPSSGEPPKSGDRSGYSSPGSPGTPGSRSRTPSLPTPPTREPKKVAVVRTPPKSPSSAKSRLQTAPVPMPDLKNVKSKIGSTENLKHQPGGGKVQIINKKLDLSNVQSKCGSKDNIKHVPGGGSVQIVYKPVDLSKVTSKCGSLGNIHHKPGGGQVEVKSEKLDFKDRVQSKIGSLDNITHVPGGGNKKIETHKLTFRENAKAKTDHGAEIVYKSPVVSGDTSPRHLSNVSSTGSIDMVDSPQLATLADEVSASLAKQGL
Chain of Amyloid-beta precursor protein (Homo sapiens) (P05067 whole entry): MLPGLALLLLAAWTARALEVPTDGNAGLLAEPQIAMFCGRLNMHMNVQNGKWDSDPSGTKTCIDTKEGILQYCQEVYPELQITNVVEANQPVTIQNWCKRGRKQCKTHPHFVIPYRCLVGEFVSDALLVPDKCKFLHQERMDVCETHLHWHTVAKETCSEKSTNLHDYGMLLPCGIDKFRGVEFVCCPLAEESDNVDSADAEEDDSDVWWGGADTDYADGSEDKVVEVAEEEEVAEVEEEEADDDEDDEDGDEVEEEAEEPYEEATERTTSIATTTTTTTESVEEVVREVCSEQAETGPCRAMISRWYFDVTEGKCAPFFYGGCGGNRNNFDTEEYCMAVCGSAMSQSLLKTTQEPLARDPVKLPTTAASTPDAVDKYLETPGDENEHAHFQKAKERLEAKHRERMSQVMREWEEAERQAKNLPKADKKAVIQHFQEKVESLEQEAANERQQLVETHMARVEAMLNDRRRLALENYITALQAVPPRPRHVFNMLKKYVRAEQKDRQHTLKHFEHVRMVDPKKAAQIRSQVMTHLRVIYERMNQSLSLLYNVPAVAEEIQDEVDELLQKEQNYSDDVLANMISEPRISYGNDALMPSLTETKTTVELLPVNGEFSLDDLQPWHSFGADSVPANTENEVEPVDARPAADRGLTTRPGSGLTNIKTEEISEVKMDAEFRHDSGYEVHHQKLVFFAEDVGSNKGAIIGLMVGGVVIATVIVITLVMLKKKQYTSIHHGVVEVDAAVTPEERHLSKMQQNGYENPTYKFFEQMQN
Chain of Microtubule-associated protein tau (Mus musculus) (P10637 whole entry): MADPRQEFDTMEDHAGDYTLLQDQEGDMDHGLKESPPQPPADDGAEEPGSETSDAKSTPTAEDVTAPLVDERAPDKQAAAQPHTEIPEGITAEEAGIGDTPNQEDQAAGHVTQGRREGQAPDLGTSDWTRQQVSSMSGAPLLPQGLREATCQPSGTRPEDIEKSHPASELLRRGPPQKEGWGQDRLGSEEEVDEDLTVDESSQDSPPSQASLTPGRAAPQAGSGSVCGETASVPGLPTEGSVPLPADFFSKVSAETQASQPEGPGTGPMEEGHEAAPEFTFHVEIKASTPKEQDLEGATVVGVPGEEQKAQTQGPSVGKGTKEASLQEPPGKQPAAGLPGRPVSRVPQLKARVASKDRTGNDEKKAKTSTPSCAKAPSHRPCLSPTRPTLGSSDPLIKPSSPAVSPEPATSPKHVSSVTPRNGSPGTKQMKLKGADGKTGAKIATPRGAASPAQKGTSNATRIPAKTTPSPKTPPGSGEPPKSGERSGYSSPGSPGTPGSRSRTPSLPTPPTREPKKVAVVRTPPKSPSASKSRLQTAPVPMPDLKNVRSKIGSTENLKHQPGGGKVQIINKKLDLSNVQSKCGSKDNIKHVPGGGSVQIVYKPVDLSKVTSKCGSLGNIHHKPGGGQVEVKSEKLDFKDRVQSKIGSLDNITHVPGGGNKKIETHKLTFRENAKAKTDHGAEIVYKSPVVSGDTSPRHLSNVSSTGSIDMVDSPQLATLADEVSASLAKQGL

SMILES | Flu intensity [1] | inhibition [2] | further results
O=C(O)CN1C(=O)/C(=C/c2ccc3ccccc3n2)SC1=S | 5.4% | inactive | –
O=C(O)CN1C(=O)/C(=C/c2cn(CCO)c3ccccc23)SC1=S | 27% | Active | –
O=C(O)c1ccc(N2C(=O)/C(=C/c3csc4ccccc34)SC2=S)cc1 | 70.4% | inactive | –
O=C(O)CCN1C(=O)/C(=C/c2cccc3cc[nH]c23)SC1=S | 14.7% | Active; Weak Inhibition Observed | –
O=C(O)CCN1C(=O)/C(=C/c2ccc3ccccc3n2)SC1=S | 25% | inactive | –
O=C(O)CCN1C(=O)/C(=C/c2coc3ccccc23)SC1=S | 31.8% | inactive | –
O=C(O)CN1C(=O)/C(=C/c2cccc3cc[nH]c23)SC1=S | 15.1% | Active; Weak Inhibition Observed | –
O=C(O)c1ccc(N2C(=O)/C(=C/c3nc4ccccc4s3)SC2=S)cc1 | 31.8% | inactive | –
COc1ccc2c(/C=C3\SC(=S)N(CCC(=O)O)C3=O)c[nH]c2c1 | > 100% | inactive | –
O=C(O)c1ccc(N2C(=O)/C(=C/c3nc4ccccc4s3)SC2=S)cc1O | 25% | inactive | –
O=C(O)c1ccc(N2C(=O)/C(=C/c3coc4ccccc34)SC2=S)cc1 | 15.3% | inactive | –
O=C(O)CN1C(=O)/C(=C/c2cc3ccccc3[nH]2)SC1=S | 0.1% | Active | –
O=C(O)CN1C(=O)/C(=C/c2nc3ccccc3s2)SC1=S | 0.8% | inactive | inhibition [3]: Active; Powerful Inhibition Observed
O=C(O)CCN1C(=O)/C(=C/c2nc3ccccc3s2)SC1=S | 12.1% | inactive | inhibition [3]: Active; Powerful Inhibition Observed
O=C(O)c1ccc(N2C(=O)/C(=C/c3c[nH]c4ccccc34)SC2=S)cc1 | 14.9% | Active | inhibition [4]: Dose-dependent-effect
O=C(O)c1ccc(N2C(=O)/C(=C/c3ccc4ccccc4n3)SC2=S)cc1 | 84.3% | inactive | –
COc1ccc2c(/C=C3\SC(=S)N(CC(=O)O)C3=O)c[nH]c2c1 | 1.9% | Active | inhibition [5]: Active; Activity [6]: Active; Slight Hypsochromic Shift Observed Without Any Effect On Fluorescence Intensity; inhibition [7]: 81%; EC50 [8]: 8.66 µM; inhibition [9]: inactive; Activity [10]: Non-toxic; inhibition [11]: 50%; inhibition [12]: Active; Activity [13]: Active; inhibition [14]: Active; inhibition [15]: Active; inhibition [16]: 92%; inhibition [4]: Dose-dependent-effect; inhibition [17]: Active; inhibition [18]: 18%; inhibition [19]: 70%; inhibition [20]: 100%; inhibition [21]: Active
O=C(O)c1ccc(N2C(=O)/C(=C/c3csc4ccccc34)SC2=S)cc1O | 56.7% | inactive | –
O=C(O)CCN1C(=O)/C(=C/c2c[nH]c3ccccc23)SC1=S | 1.9% | Active | Activity [22]: Active; Bathochromic Shift Of 10 Nm Observed; inhibition [23]: Active; Activity [24]: Active; Bathochromic Shift Of 10 Nm Observed; EC50 [8]: 13.1 µM; inhibition [9]: inactive; Activity [10]: Non-toxic; inhibition [11]: 13%; inhibition [3]: Active; inhibition [12]: Active; inhibition [25]: Active; inhibition [16]: 78%; inhibition [4]: Dose-dependent-effect; inhibition [17]: Active; inhibition [18]: 13%; inhibition [19]: 25%; inhibition [21]: Active
O=C1/C(=C/c2ccc(-c3cccc(Cl)c3)o2)SC(=S)N1Cc1nc2ccccc2[nH]1 | – | – | inhibition [26]: 70%
O=C(O)c1ccc(N2C(=O)/C(=C/c3coc4ccccc34)SC2=S)cc1O | 29.1% | inactive | –
O=C(O)CN1C(=O)/C(=C/c2coc3ccccc23)SC1=S | 24.7% | inactive | –
O=C(O)c1ccc(N2C(=O)/C(=C/c3c[nH]c4ccccc34)SC2=S)cc1O | 8.9% | inactive | inhibition [23]: Active; Moderate Effect Observed; inhibition [3]: Active; Moderate Effect Observed; Activity [27]: Non-toxic; inhibition [28]: Active
O=C(O)CCN1C(=O)/C(=C/c2csc3ccccc23)SC1=S | -0.05% | inactive | –
O=C(O)c1ccc(N2C(=O)/C(=C/c3ccc4ccccc4n3)SC2=S)cc1O | > 100% | inactive | inhibition [29]: inactive; Activity [27]: Non-toxic
O=C(O)CN1C(=O)/C(=C/c2c[nH]c3ccccc23)SC1=S | 10.1% | Active | inhibition [4]: Dose-dependent-effect
O=C(O)CCN1C(=O)/C(=C/c2cc3ccccc3[nH]2)SC1=S | 0.5% | Active | –
O=C(O)CN1C(=O)/C(=C/c2csc3ccccc23)SC1=S | 3.2% | inactive | –
